System: C57BL/6 mouse
Experiment: Promoting effect on hair growth (hair-regrown area/shaved area) in shaved C57BL/6 mouse
Type: in vivo
Conditions: 2.5 mg spread on the back of mouse once a day
Protocol: 6 weeks-old mouse (C57BL/6, 18-20 g, at the beginning of catagen, Orient Bio Inc. Seoul, Korea) was accustomed to the breeding environment for 1 week and anesthetized intramuscularly with an anesthetizer (2.5 mg/mouse, Ketamine, rompun, Bayer Korea Inc.). The back-hair of anesthetized mouse was removed by a grainer and the mice were divided into four groups consisting of 10 mice, respectively, i.e., (1) negative control group: treatment group with only solvent, (2) positive control group: treatment group with Minoxidil (0.5%, w/w), (3) comparative test group: treatment group with the extract prepared in Comparative Example 1 dissolved in adjuvant in a dose dependent manner, (4) test sample group: treatment group with the extract prepared in Examples dissolved in adjuvant in a dose dependent manner. 2.5 mg of the test samples was spread on the back of mouse once a day for 20 days.
The ratio of hair-regrown area/shaved area was quantitatively analyzed by image analyzer (Image-Pro, USA) after shooting the hair-grown area with digital camera (Canon, Japan) and the test result was scored to 5 scores, i.e., score 0: ineffective; score 1: merely effective; score 2: favorably effective; score 3; potently effective; score 4; most potently effective as shown in Table 2.

Nc1cc(N2CCCCC2)nc(N)[n+]1[O-] [Positive control, Minoxidil]
Criteria (5th day): IE (Ineffective (IE))
Hair growth ratio (5th day): 14%
Score (5th day): 0 (0-20%)
Criteria (10th day): FE (favorably effective (FE))
Hair growth ratio (10th day): 42%
Score (10th day): 2 (40-60%)
Criteria (15th day): PE (potently effective (PE))
Hair growth ratio (15th day): 62%
Score (15th day): 3 (60-70%)
Criteria (20th day): PE (potently effective (PE))
Hair growth ratio (20th day): 68%
Score (20th day): 3 (60-70%)

Reference: patent publication US20160263169A1, “COMPOSITION COMPRISING AN EXTRACT OF COMBINED HERB CONSISTING OF HEAT PROCESSED GINSENG, HOUTTUYNIAE HERBA, PERILLA LEAF AND TEA LEAF OR THE PROCESSED EXTRACT THEREOF AS AN ACTIVE INGREDIENT SHOWING HAIR-STIMULATING ACTIVITY AND PREVENTING ACTIVITY FROM HAIR LOSS, AND THE USE THEREOF” (GINSENG SCIENCE INC., priority 2015, published 2016)
